# How the values were obtained:
# [1] = tested on: VAN-induced C57BL/6J mouse model; assay: VAN-induced intestinal epithelial barrier dysfunction and gut inflammation model
# Procedure: This was succeeded by a daily oral administration of 50 mg/kg UsNFs of CUR for another 10 days, whereas the control group (CON) received standard rodent feed and water (Fig. 5A).
# [2] = tested on: faecal metabolites of gut bacteria; assay: Faecal metabolome analysis (GC-MS) in VAN-induced mice; assay type: in vivo, C57BL/6 mice
# Procedure: The extract of faecal samples (40 mg/ml methanol) was prepared as described in the previous method. The obtained dry extract was derivatized with methoxyamine-HCl and BSTFA (Sigma-Aldrich, USA), followed by incubation for 1 h at 37 °C. Subsequently, the supernatant (10 μl) obtained after centrifugation at 10,000×g for 12 min was injected into an Agilent GC-MS. The injector, transfer line, and ion source were set at 280 °C, 150 °C and 230 °C, respectively. At the beginning, we set the oven temperature to 60 °C, and then increased at 60 °C/min for 2 min, followed by an increase at the rate of 10 °C/min until reaching 300 °C.
# [3] = Distribution of DiR-loaded UsNFs in the GIT; assay type: in vivo, C57BL/6J mice; conditions: oral, 2 mg/kg DiR
# Procedure: 34 Distribution of UsNFs in the GIT.
# 37 of 2 mg/kg DiR. […] The stomachs and
# 41 FITC-dextran permeability assay .
# Blood samples were collected at
# 44 shielded from light exposure. […] Standards (0.1–
# 48 subtraction and subjected to statistical analysis.
# The mice were divided into three groups
# 61 sterilized drinking water.
Residence in the GIT (NIR signal of DiR) [3],SMILES,"Colon length increase over control group ([1]; VAN 20 mg/ml in drinking water, 10 days) [%]",MDA level increase ([1]; VAN-induced group),Content of butyrate in faeces ([2]; VAN-induced group (CON 1.1 %)) [%],Content of propionate in faeces ([2]; VAN-induced group (CON 1.3 %)) [%],Content of acetate in faeces ([2]; VAN-induced group (CON 1.52 %)) [%],Content of azelaic acid in faeces ([2]; VAN-induced group (CON 2.2 %)) [%],"Content of 9,12,15-octadecatrienoic acid in faeces ([2]; VAN-induced group (CON 3.11 %)) [%]",Content of 4-aminovaleric acid in faeces ([2]; VAN-induced group (CON 12.7 %)) [%],"Content of hexanoic acid in faeces ([2]; VAN-induced group, printed from 23.7 % to 0.81 %) [%]"
–,"CN[C@H](CC(C)C)C(=O)N[C@H]1C(=O)N[C@@H](CC(N)=O)C(=O)N[C@H]2C(=O)N[C@H]3C(=O)N[C@H](C(=O)N[C@H](C(=O)O)c4cc(O)cc(O)c4-c4cc3ccc4O)[C@H](O)c3ccc(c(Cl)c3)Oc3cc2cc(c3O[C@@H]2O[C@H](CO)[C@@H](O)[C@H](O)[C@H]2O[C@H]2C[C@](C)(N)[C@H](O)[C@H](C)O2)Oc2ccc(cc2Cl)[C@H]1O [VAN, vancomycin]",21.9,around 2.5 times,0.14,0.16,0.16,0.34,0.8,1.4,0.81
quick removal via feces,"CCCCCCCCCCCCCCCCCCN1C(=CC=CC=CC=CC2=[N+](CCCCCCCCCCCCCCCCCC)c3ccccc3C2(C)C)C(C)(C)c2ccccc21 [Free DiR, 1,1′-dioctadecyl-3,3,3′,3′-tetramethylindotricarbocyanine]",–,–,–,–,–,–,–,–,–

# — PMC12702354, “Engineered an ultrasmall curcumin oral nanoformulation restores intestinal integrity and gut microbiota dysbiosis” (Materials Today Bio, 2025)
